Tested on: cerebral infarction area in the brain of ischemic rats
Assay: Transient focal cerebral ischemia-reperfusion model, infarct area (TTC staining)
Type: in vivo, Sprague-Dawley (SD) rats
Conditions: 24 hr after reperfusion, vs control group
Experimental: Animals are male Sprague-Dawley (SD) rats, weighing 225-275 g and male ICR mice, weighing 25-30 g were purchased from BioLASCO Co. Ltd. (Taipei, Taiwan). All animals were fed regular chow and housed in standard cages at a constant temperature of 22±1° C. and relative humidity of 55±5% with 12 hr inverted light-dark cycle for 1 week prior to the experiments. Surgery was performed under zoletil® anesthesia. Five to six animals were used to obtain consistent data in each group. Pipoxolan was dissolved in dimethylsulfoxide (DMSO) and diluted in tissue culture medium before use. Focal ischemia was induced by occlusion of both common carotid arteries (CCA) and the right middle cerebral artery (MCA). Eighteen rats were randomly assigned to 3 treatment groups, six rats for each group. Group 1 rats were treated with saline and groups 2 and 3 treated with pipoxolan (10 mg/kg and 30 mg/kg, respectively). Rats were fasted overnight with free access to water. […] After 24 hr, all rats were alive and neurobehavioral deficits evaluation and infarct assessment were performed Twenty four hours following reperfusion, neurological function of rats was assessed. […] The image of each section was digitized and the infarct area was determined morphometrically using Image-Pro Plus 6.0 (Media Cybernetics, Md., USA).

Compound: Cl.O=C1OC(CCN2CCCCC2)OC1(c1ccccc1)c1ccccc1 (centres unmarked) [pipoxolan, 5,5-diphenyl-2-(2-piperidin-1-ylethyl)-1,3-dioxolan-4-one hydrochloride]
- percent reduction of cerebral infarction (10 mg/kg p.o. 1 hr prior to ischemia): 43.18%
- percent reduction of cerebral infarction (30 mg/kg p.o. 1 hr prior to ischemia): 73.43%

Reference: patent US20150037399A1, “NOVEL USE OF PIPOXOLAN AND ITS PHARMACEUTICAL COMPOSITION” (China Medical University, priority 2013, published 2015)
